The text below walks through data of patent US20190367516A1 (Bayer Pharma Aktiengesellschaft, priority 2015, published 2019).

Like-named read-outs stand apart in the source and are kept apart here.

The experiment concerns the target T1, human M2 receptor (Homo sapiens, UniProt P08172).
T1 sequence (P08172 1-466): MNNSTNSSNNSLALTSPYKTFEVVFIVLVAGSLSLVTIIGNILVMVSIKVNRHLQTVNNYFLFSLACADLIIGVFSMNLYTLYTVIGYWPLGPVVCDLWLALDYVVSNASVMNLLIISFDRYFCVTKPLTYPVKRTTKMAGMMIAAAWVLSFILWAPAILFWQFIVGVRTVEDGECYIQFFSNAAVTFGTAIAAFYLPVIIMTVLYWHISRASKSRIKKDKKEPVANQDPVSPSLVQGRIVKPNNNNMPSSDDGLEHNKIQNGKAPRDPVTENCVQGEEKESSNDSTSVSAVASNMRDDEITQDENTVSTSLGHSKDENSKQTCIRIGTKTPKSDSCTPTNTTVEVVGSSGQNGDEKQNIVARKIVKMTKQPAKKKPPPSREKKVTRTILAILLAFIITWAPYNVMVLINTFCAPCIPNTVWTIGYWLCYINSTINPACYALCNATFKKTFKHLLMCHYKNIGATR
The settings on record: for Emax: read-out: Efficiency, boosting of the acetylcholine effect at EC20 acetylcholine concentration.

[1] abbreviates: Receptor activity EC50, M2-GIRK1/4 activation test, acetylcholine at EC20, allosteric potency, in some cases mean values from two or more determinations.
[2] abbreviates: Receptor activity EC50, allosteric potency at EC20 acetylcholine, M2-GIRK1/4 reporter cells, in some cases mean of two or more determinations.

Description: Functional M2-GIRK1/4 Activation Test
The binding of orthosteric agonists (endogenous ligand: acetylcholine) to the M2 receptor leads to receptor activation or a change in conformation of the receptor in the manner of a shift in equilibrium in favour of the active receptor conformation.
The agonist-induced change in conformation of the M2 receptor results in a Gαi protein activation. […] Under physiological conditions, the result is then a selective efflux of potassium from the cell along the electrochemical gradient. […] The extent of hyperpolarization can therefore be regarded as a measure of the activation of the M2 receptor.
The test cell used is a recombinant CHO-DUKX cell line which has been stably transfected with cDNA coding for the human M2 receptor and with cDNA coding for both GIRK1/4 subunits (CHO-DUKX-M2-GIRK). The transmembrane potential, or the relative changes in the transmembrane potential as a function of substance addition or M2 activation, is determined by means of a voltage-sensitive dye (FLIPR Membrane Potential Assay Kit Blue, Molecular Devices # R8034) and the measurement of cell fluorescence using a proprietary fluorescence imaging instrument.
Determination of the Allosteric Potency of the Test Substances (EC50 Value)
The sowing medium consisted of MEM alpha medium (supplemented with 5% FCS, 2% Glutamax, no genticin).
For the particular measurement, the medium was removed and the cells were laden with the voltage-sensitive dye for at least 6 min at room temperature (30 μl of loading buffer per 384-well). This was followed, in a first measurement, by the determination of the fluorescence for the resting transmembrane potential for a period of 5 sec. Thereafter, 10 μl in each case of the test substances diluted in loading buffer were added, followed by a second measurement to determine the transmembrane potential for a period of 50 sec. Finally, the cells were admixed with 10 μl of agonist solution (acetylcholine dissolved in loading buffer). Acetylcholine was used at the concentration corresponding to the EC20, which had been determined in a preliminary test. The M2-mediated GIRK1/4 activation or hyperpolarization was then monitored in a third measurement over a period of 60 sec. The EC50 value (degree of allosteric potency of test compound) and the efficiency (measure of the boosting of the acetylcholine effect at an EC20 acetylcholine concentration) were determined with the aid of a 4-parameter logistic function (Hill function).

Usually EC50 stands for the concentration that produces a half-maximal response. Under setting [1], `C[C@@H]1C[C@](C)(O)CN1c1ccc2c(=O)c(C(=O)N[C@@H](C)C(F)(F)F)cn(-c3c(F)cc(F)cc3Cl)c2n1` [Example 390, 1-(2-Chloro-4,6-difluorophenyl)-7-[(2R,4S)-4-hydroxy-2,4-dimethylpyrrolidin-1-yl]-4-oxo-N-[(2S)-1,1,1-trifluoropropan-2-yl]-1,4-dihydro-1,8-naphthyridine-3-carboxamide] displayed an EC50 of 14 nM. Still for that read-out and setting: the same measure for `CC(C)(CC(F)(F)F)NC(=O)c1cn(-c2c(F)cc(F)cc2Cl)c2nc(N3C[C@@H](O)[C@H](O)C3)ccc2c1=O` [Example 391, 1-(2-Chloro-4,6-difluorophenyl)-7-[(3R,4R)-3,4-dihydroxypyrrolidin-1-yl]-4-oxo-N-(4,4,4-trifluoro-2-methylbutan-2-yl)-1,4-dihydro-1,8-naphthyridine-3-carboxamide]: 8 nM; for `CC(C)(CC(F)(F)F)NC(=O)c1cn(-c2c(F)cc(F)cc2Cl)c2nc(N3CCNC3=O)ccc2c1=O` [Example 394, 1-(2-Chloro-4,6-difluorophenyl)-4-oxo-7-(2-oxoimidazolidin-1-yl)-N-(4,4,4-trifluoro-2-methylbutan-2-yl)-1,4-dihydro-1,8-naphthyridine-3-carboxamide]: 7 nM.

`CC(C)(CC(F)(F)F)NC(=O)c1cn(-c2c(F)cc(F)cc2Cl)c2nc(N3C[C@@H](O)CC3=O)ccc2c1=O` [Example 395, 1-(2-Chloro-4,6-difluorophenyl)-7-[(4S)-4-hydroxy-2-oxopyrrolidin-1-yl]-4-oxo-N-(4,4,4-trifluoro-2-methylbutan-2-yl)-1,4-dihydro-1,8-naphthyridine-3-carboxamide] had an EC50 under setting [2] of 7 nM. The Emax (M2-GIRK1/4 reporter cells) stood at 100%. In the case of `O=C(NC12CC(F)(C1)C2)c1cn(-c2c(F)cc(F)cc2Cl)c2nc(N3C[C@@H](O)CC3=O)ccc2c1=O` [Example 397, 1-(2-Chloro-4,6-difluorophenyl)-N-(3-fluorobicyclo[1.1.1]pent-1-yl)-7-[(4S)-4-hydroxy-2-oxopyrrolidin-1-yl]-4-oxo-1,4-dihydro-1,8-naphthyridine-3-carboxamide], under setting [2], the EC50 was determined as 32 nM. Moreover, the Emax (M2-GIRK1/4 reporter cells) is 90%. `O=C(NC12CC(F)(C1)C2)c1cn(-c2c(F)cc(F)cc2Cl)c2nc(N3C[C@@H](O)[C@H](O)C3)ccc2c1=O` [Example 401, 1-(2-Chloro-4,6-difluorophenyl)-7-[(3R,4R)-3,4-dihydroxypyrrolidin-1-yl]-N-(3-fluorobicyclo[1.1.1]pent-1-yl)-4-oxo-1,4-dihydro-1,8-naphthyridine-3-carboxamide] yielded a half-maximal effective concentration (EC50) under setting [2] of 41 nM. Moreover, for the setting “M2-GIRK1/4 reporter cells”, the Emax is 95.5%.

Under setting [2], `CC(C)(NC(=O)c1cn(-c2c(F)cc(F)cc2F)c2nc(N3C[C@@H](O)[C@H](O)C3)ccc2c1=O)C(F)(F)F` [Example 403] came in with an EC50 of 32 nM. Moreover, the Emax (M2-GIRK1/4 reporter cells) came to 100%. Regarding `O=C(N[C@H](C1CC1)C(F)(F)F)c1cn(-c2c(F)cc(F)cc2F)c2nc(N3CC4CC4(O)C3)ccc2c1=O` (stereo partly drawn) [Example 405, N-[(1R)-1-Cyclopropyl-2,2,2-trifluoroethyl]-7-[1-hydroxy-3-azabicyclo[3.1.0]hex-3-yl]-4-oxo-1-(2,4,6-trifluorophenyl)-1,4-dihydro-1,8-naphthyridine-3-carboxamide], under setting [2], the response was half-maximal at 8 nM (EC50). The Emax (M2-GIRK1/4 reporter cells) was 95.5%.

With `CC[C@@H](NC(=O)c1cn(-c2c(F)cc(F)cc2Cl)c2nc(N3CC4CC4(O)C3)ccc2c1=O)C(F)(F)F` (stereo partly drawn) [Example 406, 1-(2-Chloro-4,6-difluorophenyl)-7-[1-hydroxy-3-azabicyclo[3.1.0]hex-3-yl]-4-oxo-N-[(2R)-1,1,1-trifluorobutan-2-yl]-1,4-dihydro-1,8-naphthyridine-3-carboxamide], under setting [2], the 50% effective concentration (EC50) came to 9 nM. Further, the Emax (M2-GIRK1/4 reporter cells) came to 88%. Molecule `C[C@H](NC(=O)c1cn(-c2c(F)cc(F)cc2Cl)c2nc(N3CC4CC4(O)C3)ccc2c1=O)C(F)(F)F` (stereo partly drawn) [Example 408, 1-(2-Chloro-4,6-difluorophenyl)-7-[1-hydroxy-3-azabicyclo[3.1.0]hex-3-yl]-4-oxo-N-[(2S)-1,1,1-trifluoropropan-2-yl]-1,4-dihydro-1,8-naphthyridine-3-carboxamide] showed an EC50 under setting [2] of 9 nM. The Emax (M2-GIRK1/4 reporter cells) is 94%. Turning to `C[C@H](NC(=O)c1cn(-c2c(F)cc(F)cc2Cl)c2nc(N3CCNC3=O)ccc2c1=O)C(F)(F)F` [Example 419, 1-(2-Chloro-4,6-difluorophenyl)-4-oxo-7-(2-oxoimidazolidin-1-yl)-N-[(2S)-1-1,1,1-trifluoropropan-2-yl]-1,4-dihydro-1,8-naphthyridine-3-carboxamide], the EC50 under setting [2] is 46 nM. Also, the Emax (M2-GIRK1/4 reporter cells) is 91.5%. Molecule `C[C@@H](COC(F)(F)F)NC(=O)c1cn(-c2c(F)cc(F)cc2Cl)c2nc(N3C[C@@H](O)CC3=O)ccc2c1=O` [Example 421, 1-(2-Chloro-4,6-difluorophenyl)-7-[(4S)-4-hydroxy-2-oxopyrrolidin-1-yl]-4-oxo-N-[(2S)-1-(trifluoromethoxy)propan-2-yl]-1,4-dihydro-1,8-naphthyridine-3-carboxamide] had an EC50 under setting [2] of 48 nM. In addition, the Emax (M2-GIRK1/4 reporter cells) stood at 100%. Taken in the same sequence, the figures for `CC[C@H](NC(=O)c1cn(-c2c(F)cc(F)cc2Cl)c2nc(N3C(=O)CC[C@@H]3CO)ccc2c1=O)C(F)(F)F` [Example 430, 1-(2-Chloro-4,6-difluorophenyl)-7-[(2R)-2-(hydroxymethyl)-5-oxopyrrolidin-1-yl]-4-oxo-N-[(2)-1,1,1-trifluorobutan-2-yl]-1,4-dihydro-1,8-naphthyridine-3-carboxamide] were 61 nM and 90%. Taken in the same sequence, the figures for `CC[C@@H](NC(=O)c1cn(-c2ccc(F)cc2F)c2nc(N3CCC(C)C3=O)ccc2c1=O)C(F)(F)F` (stereo partly drawn) [Example 431, 1-(2,4-Difluorophenyl)-7-[3-methyl-2-oxopyrrolidin-1-yl]-4-oxo-N-[(2R)-1,1,1-trifluorobutan-2-yl]-1,4-dihydro-1,8-naphthyridine-3-carboxamide] were 92 nM and 98%. For `CC[C@@H](NC(=O)c1cn(-c2ccc(F)cc2F)c2nc(N3C(=O)NCC3C)ccc2c1=O)C(F)(F)F` (stereo partly drawn) [Example 434, 1-(2,4-Difluorophenyl)-7-[5-methyl-2-oxoimidazolidin-1-yl]-4-oxo-N-[(2R)-1,1,1-trifluorobutan-2-yl]-1,4-dihydro-1,8-naphthyridine-3-carboxamide] the same measures were 61 nM and 92%. `O=C(N[C@H](C(F)F)C1CC1)c1cn(-c2c(F)cc(F)cc2F)c2nc(N3C[C@@H](O)CC3=O)ccc2c1=O` [Example 435, N-[(1 S)-1-Cyclopropyl-2,2-difluoroethyl]-7-[(4S)-4-hydroxy-2-oxopyrrolidin-1-yl]-4-oxo-1-(2,4,6-trifluorophenyl)-1,4-dihydro-1,8-naphthyridine-3-carboxamide] gave a concentration for a half-maximal effect (EC50) under setting [2] of 84 nM. Also, where the note is “M2-GIRK1/4 reporter cells”, the Emax was 100%.

The molecule `CC(NC(=O)c1cn(-c2c(F)cc(F)cc2F)c2nc(N3C[C@@H](O)[C@H](O)C3)ccc2c1=O)(C1CC1)C(F)(F)F` (stereo partly drawn) [Example 443, N-[2-Cyclopropyl-1,1-trifluoropropan-2-yl]-7-[(3R,4R)-3,4-dihydroxypyrrolidin-1-yl]-4-oxo-1-(2,4,6-trifluorophenyl)-1,4-dihydro-1,8-naphthyridine-3-carboxamide] had an Efficiency (boosting of the acetylcholine effect at EC20 acetylcholine concentration, M2-GIRK1/4 reporter cells) of 100.0%. For the same molecule, the EC50 (read-out: Receptor activity EC50, allosteric potency at EC20 acetylcholine, M2-GIRK1/4 reporter cells, in some cases mean of two or more determinations) is 9 nM. Under setting [2], `C[C@@H]1CN(c2ccc3c(=O)c(C(=O)N[C@@H](C4CC4)C(F)(F)F)cn(-c4c(F)cc(F)cc4F)c3n2)C(=O)O1` [Example 444, N-[(1S)-1-Cyclopropyl-2,2,2-trifluoroethyl]-7-[(5R)-5-methyl-2-oxo-1,3-oxazolidin-3-yl]-4-oxo-1-(2,4,6-trifluorophenyl)-1,4-dihydro-1,8-naphthyridine-3-carboxamide] showed an EC50 of 51 nM. For the same molecule, the Emax (M2-GIRK1/4 reporter cells) was 100%. For `O=C(N[C@@H](C1CC1)C(F)(F)F)c1cn(-c2c(F)cc(F)cc2F)c2nc(N3CC4(CC4)NC3=O)ccc2c1=O` [Example 450, N-[(1 S)-1-Cyclopropyl-2,2,2-trifluoroethyl]-4-oxo-7-(5-oxo-4,6-diazaspiro[2.4]hept-6-yl)-1-(2,4,6-trifluorophenyl)-1,4-dihydro-1,8-naphthyridine-3-carboxamide] the same measures were 19 nM and 78.5%. For `O=C(N[C@@H](C1CC1)C(F)(F)F)c1cn(-c2c(F)cc(F)cc2F)c2nc(N3CCC(F)(CO)CC3)ccc2c1=O` [Example 461, N-[(1 S)-1-Cyclopropyl-2,2,2-trifluoroethyl]-7-[4-fluoro-4-(hydroxymethyl)piperidin-1-yl]-4-oxo-1-(2,4,6-trifluorophenyl)-1,4-dihydro-1,8-naphthyridine-3-carboxamide] the same measures were 39 nM and 89%.
